# Activity calls are given as the source filed them. No cut-off for these calls is given here.
# What was measured:
# Triticum aestivum = experiment: Anti-senescent activity in leaf of Triticum aestivum cv. Hereward seedlings by measuring chlorophyll retention at 10^-4 mol/L after 4 days relative to control; format: functional
# [1] = Phototoxicity in human HaCaT cells assessed as cell viability at 7.8 uM preincubated for 60 mins followed by 7.5 J/cm2 UVA irradiation and measured after 24 hrs by neutral red uptake assay relative to control; format: cell-based; conditions: read-out: Activity
# [2] = Cytotoxicity in human HaCaT cells assessed as cell viability at 31.3 uM after 24 hrs by neutral red uptake assay relative to control; format: cell-based; conditions: read-out: Activity
# BJ = experiment: Cytotoxicity in human BJ cells assessed as reduction in cell viability at 50 uM after 24 hrs by resazurin dye-based fluorescence assay relative to control
# [3] = Phototoxicity in human HaCaT cells assessed as cell viability at 15.6 uM preincubated for 60 mins followed by 7.5 J/cm2 UVA irradiation and measured after 24 hrs by neutral red uptake assay relative to control; format: cell-based; conditions: read-out: Activity
# [4] = Cytotoxicity in human HaCaT cells assessed as cell viability at 125 uM after 24 hrs by neutral red uptake assay relative to control; format: cell-based; conditions: read-out: Activity
# [5] = Cytotoxicity in human HaCaT cells assessed as cell viability at 62.5 uM after 24 hrs by neutral red uptake assay relative to control; format: cell-based; conditions: read-out: Activity
# [6] = Phototoxicity in human HaCaT cells assessed as cell viability at 3.9 uM preincubated for 60 mins followed by 7.5 J/cm2 UVA irradiation and measured after 24 hrs by neutral red uptake assay relative to control; format: cell-based; conditions: read-out: Activity
# [7] = Phototoxicity in human NHDF cells assessed as cell viability at 3.9 uM preincubated for 60 mins followed by 5 J/cm2 UVA irradiation and measured after 24 hrs by neutral red uptake assay relative to control; format: cell-based; conditions: read-out: Activity
# [8] = Cytotoxicity in human NHDF cells assessed as cell viability at 31.3 uM after 24 hrs by neutral red uptake assay relative to control; format: cell-based; conditions: read-out: Activity
# [9] = Phototoxicity in human HaCaT cells assessed as cell viability at 31.3 uM preincubated for 60 mins followed by 7.5 J/cm2 UVA irradiation and measured after 24 hrs by neutral red uptake assay relative to control; format: cell-based; conditions: read-out: Activity
# [10] = Cytotoxicity in human HaCaT cells assessed as cell viability at 7.8 uM after 24 hrs by neutral red uptake assay relative to control; format: cell-based; conditions: read-out: Activity
# [11] = Phototoxicity in human NHDF cells assessed as cell viability at 31.3 uM preincubated for 60 mins followed by 5 J/cm2 UVA irradiation and measured after 24 hrs by neutral red uptake assay relative to control; format: cell-based; conditions: read-out: Activity
# [12] = Phototoxicity in human NHDF cells assessed as cell viability at 125 uM preincubated for 60 mins followed by 5 J/cm2 UVA irradiation and measured after 24 hrs by neutral red uptake assay relative to control; format: cell-based; conditions: read-out: Activity
# [13] = Cytotoxicity in human NHDF cells assessed as cell viability at 125 uM after 24 hrs by neutral red uptake assay relative to control; format: cell-based; conditions: read-out: Activity
# [14] = Phototoxicity in human HaCaT cells assessed as cell viability at 62.5 uM preincubated for 60 mins followed by 7.5 J/cm2 UVA irradiation and measured after 24 hrs by neutral red uptake assay relative to control; format: cell-based; conditions: read-out: Activity
# HaCaT [15] = experiment: Cytoprotection against phototoxicity in human HaCaT cells assessed as increase in cell viability at 3.9 uM preincubated for 60 mins followed by 10 J/cm2 UVA irradiation and measured after 24 hrs by neutral red uptake assay; format: functional, cell-based
# HaCaT [16] = experiment: Cytotoxicity in human HaCaT cells assessed as reduction in cell viability at 50 uM after 24 hrs by resazurin dye-based fluorescence assay relative to control
# [17] = Phototoxicity in human NHDF cells assessed as cell viability at 15.6 uM preincubated for 60 mins followed by 5 J/cm2 UVA irradiation and measured after 24 hrs by neutral red uptake assay relative to control; format: cell-based; conditions: read-out: Activity
# [18] = Cytotoxicity in human HaCaT cells assessed as cell viability at 3.9 uM after 24 hrs by neutral red uptake assay relative to control; format: cell-based; conditions: read-out: Activity
# [19] = Cytotoxicity in human HaCaT cells assessed as cell viability at 15.6 uM after 24 hrs by neutral red uptake assay relative to control; format: cell-based; conditions: read-out: Activity
# [20] = Cytotoxicity in human NHDF cells assessed as cell viability at 62.5 uM after 24 hrs by neutral red uptake assay relative to control; format: cell-based; conditions: read-out: Activity
# [21] = Cytotoxicity in human NHDF cells assessed as cell viability at 15.6 uM after 24 hrs by neutral red uptake assay relative to control; format: cell-based; conditions: read-out: Activity
# [22] = Phototoxicity in human NHDF cells assessed as cell viability at 62.5 uM preincubated for 60 mins followed by 5 J/cm2 UVA irradiation and measured after 24 hrs by neutral red uptake assay relative to control; format: cell-based; conditions: read-out: Activity
# [23] = Antioxidant activity assessed as trolox equivalent of AAPH-induced radical scavenging activity at 1 uM pretreated for 15 mins followed by […] challenge measured every 3 mins over 90 mins by ORAC-FL assay; format: functional
# Nicotiana tabacum = experiment: Growth promoting activity in tobacco callus assessed as callus weight at 10^-5 mol/L after 4 weeks relative to control; format: functional
# [24] = Phototoxicity in human NHDF cells assessed as cell viability at 7.8 uM preincubated for 60 mins followed by 5 J/cm2 UVA irradiation and measured after 24 hrs by neutral red uptake assay relative to control; format: cell-based; conditions: read-out: Activity
# [25] = Phototoxicity in human HaCaT cells assessed as cell viability at 125 uM preincubated for 60 mins followed by 7.5 J/cm2 UVA irradiation and measured after 24 hrs by neutral red uptake assay relative to control; format: cell-based; conditions: read-out: Activity
# [26] = Cytotoxicity in human NHDF cells assessed as cell viability at 3.9 uM after 24 hrs by neutral red uptake assay relative to control; format: cell-based; conditions: read-out: Activity
# [27] = Cytotoxicity in human NHDF cells assessed as cell viability at 7.8 uM after 24 hrs by neutral red uptake assay relative to control; format: cell-based; conditions: read-out: Activity
# NHDF [28] = experiment: Cytoprotection against phototoxicity in human NHDF cells assessed as increase in cell viability at 3.9 to 31.3 uM preincubated for 60 mins followed by 150 mJ/cm2 UVB irradiation and measured after 24 hrs by neutral red uptake assay; format: functional, cell-based
# HaCaT [29] = experiment: Cytoprotection against phototoxicity in human HaCaT cells assessed as increase in cell viability at 3.9 to 31.3 uM preincubated for 60 mins followed by 10 J/cm2 UVA irradiation and measured after 24 hrs by neutral red uptake assay; format: functional, cell-based
# NHDF [30] = experiment: Cytoprotection against phototoxicity in human NHDF cells assessed as increase in cell viability at 3.9 to 31.3 uM preincubated for 60 mins followed by 7.5 J/cm2 UVA irradiation and measured after 24 hrs by neutral red uptake assay; format: functional, cell-based
# Amaranthus caudatus [31] = experiment: Growth promoting activity in Amaranthus caudatus var. atropurpurea seeds by measuring betacyanin at 10^-4 mol/L after 48 hrs relative to control; format: functional
# NHDF [32] = experiment: Cytoprotection against phototoxicity in human NHDF cells assessed as increase in cell viability at 31.3 uM preincubated for 60 mins followed by 150 mJ/cm2 UVB irradiation and measured after 24 hrs by neutral red uptake assay; format: functional, cell-based
# Amaranthus caudatus [33] = experiment: Growth promoting activity in Amaranthus caudatus var. atropurpurea seeds by measuring betacyanin at 10^-5 mol/L after 48 hrs relative to control; format: functional
compound,measurement,setting,value
OCc1ccc(CNc2ncnc3c2ncn3C2CCCO2)o1 (stereo not given),Activity,Triticum aestivum,75%
same,"viability at 24 h, 7.8 µM",[1],111%
same,"viability at 24 h, 31.3 µM",[2],108%
same,Activity,BJ,< 10%
same,"viability at 24 h, 15.6 µM",[3],108%
same,"viability at 24 h, 125 µM",[4],110%
same,"viability at 24 h, 62.5 µM",[5],106%
same,"viability at 24 h, 3.9 µM",[6],104%
same,"viability at 24 h, 3.9 µM",[7],101%
same,"viability at 24 h, 31.3 µM",[8],108%
same,"viability at 24 h, 31.3 µM",[9],118%
same,"viability at 24 h, 7.8 µM",[10],100%
same,"viability at 24 h, 31.3 µM",[11],107%
same,"viability at 24 h, 125 µM",[12],112%
same,"viability at 24 h, 125 µM",[13],110%
same,"viability at 24 h, 62.5 µM",[14],121%
same,Activity,HaCaT [15],Active
same,Activity,HaCaT [16],< 10%
same,"viability at 24 h, 15.6 µM",[17],102%
same,"viability at 24 h, 3.9 µM",[18],100%
same,"viability at 24 h, 15.6 µM",[19],102%
same,"viability at 24 h, 62.5 µM",[20],107%
same,"viability at 24 h, 15.6 µM",[21],104%
same,"viability at 24 h, 62.5 µM",[22],111%
same,Activity,[23],0.77 equiv
same,Activity,Nicotiana tabacum,103%
same,"viability at 24 h, 7.8 µM",[24],107%
same,"viability at 24 h, 125 µM",[25],125%
same,"viability at 24 h, 3.9 µM",[26],103%
same,"viability at 24 h, 7.8 µM",[27],105%
O=C(/C=C/c1ccc(O)c(O)c1)O[C@H](Cc1ccc(O)c(O)c1)C(=O)O,Activity,NHDF [28],Active
same,Activity,HaCaT [29],Active
same,Activity,HaCaT [15],Active
same,Activity,NHDF [30],Active
same,Activity,[23],9.14 equiv
Cc1ccsc1CNc1ncnc2c1ncn2C1CCCO1 (stereo not given),Activity,Triticum aestivum,110%
same,Activity,Nicotiana tabacum,99%
c1nc(NCC2CCCO2)c2nc[nH]c2n1 (stereo not given),Activity,Triticum aestivum,114%
same,"viability at 24 h, 7.8 µM",[1],103%
same,"viability at 24 h, 31.3 µM",[2],104%
same,Activity,BJ,< 10%
same,"viability at 24 h, 15.6 µM",[3],106%
same,"viability at 24 h, 125 µM",[4],102%
same,Activity,Amaranthus caudatus [31],109%
same,"viability at 24 h, 3.9 µM",[6],101%
same,"viability at 24 h, 3.9 µM",[7],99%
same,"viability at 24 h, 31.3 µM",[8],102%
same,Activity,NHDF [32],Active
same,"viability at 24 h, 31.3 µM",[9],113%
same,"viability at 24 h, 7.8 µM",[10],104%
same,"viability at 24 h, 31.3 µM",[11],101%
same,"viability at 24 h, 125 µM",[12],103%
same,"viability at 24 h, 125 µM",[13],101%
same,"viability at 24 h, 62.5 µM",[14],118%
same,Activity,HaCaT [15],Active
same,Activity,HaCaT [16],< 10%
same,"viability at 24 h, 15.6 µM",[17],100%
same,"viability at 24 h, 3.9 µM",[18],102%
same,"viability at 24 h, 15.6 µM",[19],102%
same,"viability at 24 h, 62.5 µM",[20],102%
same,"viability at 24 h, 15.6 µM",[21],101%
same,"viability at 24 h, 62.5 µM",[22],100%
same,Activity,[23],< 0.05 equiv
same,Activity,Nicotiana tabacum,110%
same,"viability at 24 h, 7.8 µM",[24],101%
same,"viability at 24 h, 125 µM",[25],119%
same,"viability at 24 h, 3.9 µM",[26],102%
same,"viability at 24 h, 7.8 µM",[27],103%
c1coc(CNc2ncnc3[nH]cnc23)c1 [KINETIN],Activity,Triticum aestivum,98%
same,Activity,NHDF [28],Active
same,Activity,Amaranthus caudatus [33],68%
same,Activity,NHDF [30],Active
same,Activity,[23],0.71 equiv
same,Activity,Nicotiana tabacum,101%
c1ccc(CNc2ncnc3[nH]cnc23)cc1 [6-BENZYLAMINOPURINE],Activity,Nicotiana tabacum,20%
